These results are taken from patent publication US20040067565A1, “Selective functionalization of hydrocarbons with isolated oxygenases and mediator based regeneration” (priority 2002, published 2004).

The target of assay [1] is monooxygenase component of styrene monooxygenase (StyA) (Pseudomonas sp, UniProt O50214). As to the kind of experiment: [Cp*Rh(bpy)(H2O)]2+ driven, StyA-catalyzed epoxidation / sulfoxidation. The assay is classed as biochemical. The procedure:
In a typical experimental setup 1 ml total volume was placed in an Eppendorf cup in a Thermomixer. The temperature was set to 37° C. and the reaction mixture was shaken thoroughly to ensure O2 intake.
Product formation was followed by reversed phase HPLC. The HPLC system (Merck) consisted of a D-7000 controller, L-7200 autosampler, L-7400 UV detector, L-7100 liquid chromatography pump and was fitted with a CC250/4 Nucleosil 100-5 C18 HD column. Samples were eluted under isocratic conditions using 60% acetonitrile and 40% water at a flow rate of 1 ml×min^−1. The elution pattern was monitored at 210 nm.
0.2 mM [Cp*Rh(bpy)(H2O)]^2+, 0.05 mM FAD, 0.005 mM FMN, 2 mM styrene, 280 U catalase, and 1.16 μM StyA in 50 mM potassium phosphate buffer with 150 mM sodium formate were incubated at 37° C. and agitation at 1500 rpm. At intervals, reactions were stopped by addition of one equivalent volume of cold acetonitrile. After centrifugation (15 min at 4° C. and 23000×g the upper phase was analyzed by reverse phase HPLC. Concentrations were corrected according to the phase ratio after centrifugation. Results from this experiment are given in FIG. 10 and Table 3.
0.2 mM [Cp*Rh(bpy)(H2O)]^2+, 0.02 mM FAD, 2 mM substrate, 200 U catalase, and 1.47 μM StyA in 50 mM potassium phosphate buffer with 150 mM sodium formate were incubated at 37° C. and agitation at 1500 rpm.
Styrene oxide was analyzed using a CC200/4 Nucleodex α-PM (Machery-Nagel). As eluent 60% methanol and 40% 6.2 mM TEAA in water was used at a flow rate of 0.7 ml×min^−1. 1,2-Dihydronaphthalene oxide, trans-β-Methylstyrene oxide, indene oxide, and methyl phenyl sulfoxide were extracted from the reaction buffer with one aliquot hexane und analyzed unsing normal phase HPLC with a CHIRACEL OB—H column and hexane:isopropanol 95:5 (9:1 for methyl phenyl sulfoxide) at a flow rate of 0.5 ml*min^−1 as mobile phase. As reference either authentical samples of racemic epoxides were used. (Table 4). […]

The target in another assay is T1, Cytochrome C (cytC) (Equus caballus, UniProt P00004).
T1 construct: cytC- (from horse heart, Fluka, Buchs Switzerland); purchased Fluka, Buchs Switzerland; host or cells: horse heart
As to the kind of experiment: [Cp*Rh(bpy)H]+ catalyzed, formate driven reduction of Cytochrome C (absorption at 550 nm). The following applies: for TF ([Cp*Rh(bpy)(H2O)]2+) / dc(CytC)red/dt: c(CytC) 31.2 μM, c(NaHCO2) 150 mM. In kind it is biochemical, horse. The method, then:
In a typical experiment potassium phosphate buffer (50 mM, pH 7.0, c(NaHCO2)=150 mM) is supplemented with cytC- (from horse heart, Fluka, Buchs Switzerland) and [Cp*Rh(bpy)(H2O)]^2+-stocksolutions to 1 ml final volume in a quartz kuvette and placed into a thermostatted (T=30° C.) UV-spectrophotometer (UNICAM). After addition of the components, the absorption at λ=550 nm is followed. Concentrations of reduced CytC were determined after background correction according to the law of Lamber-Beer utilizing a molar extinction coefficient for reduced CytC of […].
In another typical experiment, the reaction temperature was varied between 20 and 35° C.
To exclude stoichiometric interaction of [Cp*Rh(bpy)(H2O)]^2+ with cytC, in another experiment low c([Cp*Rh(bpy)(H2O)]^2+) were applied. In 50 ml degassed potassium phosphate buffer (50 mM, pH 7.0, c(NaHCO2)=150 mM) 10 μM ([Cp*Rh(bpy)(H2O)]^2+) were incubated with 80 μM cytC (FIG. 9).

A short description of assay [2]: [Cp*Rh(bpy)(H2O)]2+ catalyzed reduction of FAD leading to hydrogen peroxide. The procedure: Hydrogen peroxide was determined enzymatically, based on the method by Saito et al.. Samples were mixed with a solution of 0.6 mM 4-amino antipyrine, 9 mM phenol, and 6 U×ml^−1 peroxidase from Coprinus cinereus. After one minute incubation at room temperature the absorption at 550 nm was measured.
0.2 mM [Cp*Rh(bpy)(H2O)]^2+, 0.05 mM FAD, and 1.16 μM StyA in. 50 mM potassium phosphate buffer with 150 mM sodium formate were incubated at 37° C. and agitation at 1500 rpm. At intervals samples were taken and analyzed for their hydrogen peroxide concentration. From the results a catalytic performance of 48 turnovers per hour for [Cp*Rh(bpy)(H2O)]^2+ was calculated.
In a second experiments a reaction mixture of this composition was supplemented with 2 mM styrene. After 15 min the reaction was stopped and analyzed for hydrogen peroxide and styrene oxide. 0.28 mM styrene oxide and […] were found at this time corresponding to an overall catalytic activity of [Cp*Rh(bpy)(H2O)]^2+ of 47 turnovers per hour.
Hydrogen peroxide produced was determined enzymatically with a modified assay by method by Saito et al.. Samples were mixed with a solution of 0.6 mM 4-amino antipyrine, 9 mM phenol, and 6 U×ml^−1 peroxidase from Coprinus cinereus. After one minute incubation at room temperature the absorption at 550 nm was measured.
0.2 mM [Cp*Rh(bpy)(H2O)]^2+, 0.225 mM FAD dissolved in O2 saturated potassium phosphate buffer were thermostated at 37° C. in an air-tight reaction vessel (O2-measurements: 2 ml, UV-measurements: 1 ml quartz kuvette). Reactions were started on addition of sodium formate stock solution (final concentration: 150 mM).
1 ml of 19 μM Cp*Rh(bpy)(H2O)]^2+ and 0-200 μM FAD in 50 mM potassium phosphate buffer (pH 7.0, c(NaHCO2)=150 mM) are placed in a 1.5 ml Eppendorf vial and incubated at 37° C. and agitation at 1500 rpm. At intervals […] samples are withdrawn and analyzed for their H2O2 content (FIG. 17).

The subject of assay [3] is several dehydrogenases (HLADH, TBADH, etc.). The following applies: previously reported [13]; cited from earlier work.
The mark [4] stands for this setting: FIG. 10: 37 °C, 0.2 mM [Cp*Rh(bpy)(H2O)]2+, 0.05 mM FAD, 2 mM styrene, 1.16 μM StyA.
The mark [5] stands for this setting: T 20 °C, c([Cp*Rh(bpy)(H2O)]2+) 100 μM.
Setting [6] is: T 30 °C, c([Cp*Rh(bpy)(H2O)]2+) 100 μM.
The mark [7] stands for this setting: T 35 °C, c([Cp*Rh(bpy)(H2O)]2+) 50 μM.

Structures are written as SMILES. Marks after values point to notes of the source that are not given here.

Chain of monooxygenase component of styrene monooxygenase (StyA) (O50214 whole entry): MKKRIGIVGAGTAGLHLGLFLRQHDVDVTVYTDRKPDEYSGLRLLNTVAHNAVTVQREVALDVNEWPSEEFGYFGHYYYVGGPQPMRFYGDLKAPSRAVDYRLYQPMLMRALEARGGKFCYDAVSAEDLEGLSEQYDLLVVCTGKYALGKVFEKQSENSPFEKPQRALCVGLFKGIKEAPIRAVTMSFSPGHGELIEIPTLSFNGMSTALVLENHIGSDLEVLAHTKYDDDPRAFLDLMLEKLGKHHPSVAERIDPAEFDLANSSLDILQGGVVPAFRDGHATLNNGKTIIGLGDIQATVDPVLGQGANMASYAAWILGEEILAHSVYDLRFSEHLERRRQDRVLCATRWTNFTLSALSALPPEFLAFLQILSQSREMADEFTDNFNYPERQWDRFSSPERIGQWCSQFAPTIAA
T1 sequence (P00004 whole entry): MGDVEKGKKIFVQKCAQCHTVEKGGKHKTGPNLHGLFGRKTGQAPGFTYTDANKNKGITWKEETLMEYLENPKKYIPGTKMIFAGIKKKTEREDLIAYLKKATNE

Turning to `Cc1c(C)c(C)[c-](C)c1C.O.[Rh+3].c1ccc(-c2ccccn2)nc1` [[Cp*Rh(bpy)(H2O)]^2+], in assay [1] (setting [4]), the “[Cp*Rh(bpy)(H2O)]2+ performance TF” value came to 11.3 h⁻¹. The “[Cp*Rh(bpy)(H2O)]2+ performance TTN” value in assay [1] (setting [4]) came out at 5.3. Further, the relative activity in assay [1] (calculated on FADH2 generation rate determined in the absence of StyA, FIG. 10 conditions) was 16.1^c %. This compound also yielded a total turnover number on Cytochrome C (cytC) (FIG. 9: 10 μM [Cp*Rh(bpy)(H2O)]2+, 80 μM cytC, 150 mM NaHCO2, 30 °C, degassed buffer, not optimized) of 6. The “TF ([Cp*Rh(bpy)(H2O)]2+)” value at Cytochrome C (cytC) (setting [5]) turned out to be 4 h⁻¹; at Cytochrome C (cytC) (setting [6]), 21 h⁻¹; at Cytochrome C (cytC) (setting [7]) it was 32 h⁻¹. Moreover, the entries for the “dc(CytC)red/dt” value on Cytochrome C (cytC) (setting [5]), at Cytochrome C (cytC) (setting [6]) and on Cytochrome C (cytC) (setting [7]) were 0.4 mM * h^−, 2.1 mM * h^− and 1.6 mM * h^−, respectively. Further, on Cytochrome C (cytC) (depend on the reaction temperature (20-35 °C)), the “Turnover frequencies as CytC reduction catalyst” value was 4-32 turnovers per hour. Moreover, the “catalytic performance (hydrogen peroxide formation)” value in assay [2] (0.2 mM [Cp*Rh(bpy)(H2O)]2+, 0.05 mM FAD, 1.16 μM StyA, 150 mM sodium formate, 37 °C, no styrene) came out at 48 turnovers per hour. Further, in assay [2] (37 °C, c(NaHCO2) 0.15 M, 19 μM [Cp*Rh(bpy)(H2O)]2+, 0-200 μM FAD), the “catalytic activities from initial H2O2-formation rates” value is recorded as 69.9±2.5 catalytic cycles per hour. Further, the “overall catalytic activity (hydrogen peroxide and styrene oxide)” value in assay [2] (as E39, supplemented with 2 mM styrene, after 15 min) came to 47 turnovers per hour. For the same compound, the “influence on the activity of several dehydrogenases” value in assay [3] is listed as “no influence on the activity”.
